Laboratory results as given in patent US20250101023A1, “HETEROARYL DERIVATIVE AND USES THEREOF” (IUCF-HYU (INDUSTRY-UNIVERSITY COOPERATION FOUNDATION …, priority 2022, published 2025).
Like-named read-outs stand apart in the source and are kept apart here. Blank lines part the entries; values can stand above or below the molecule they belong to.

Tests used:
cyclinK = test: Western blot, cyclinK degradation; format: cell-based; conditions: 2 hours
[1] = system: Pol II CTD (Ser2) phosphorylation; test: Western blot, Pol II CTD Ser2 phosphorylation; format: cell-based; conditions: 2 hours
HCC1954 cells = test: Breast cancer growth inhibitory activity (Cell-titer Glo, 72 h); format: cell-based; conditions: Homo sapiens
Protocol: (§1) Breast cancer cells in a culture solution (100 μL volume/well, 2,500 SK-Br3 cells/well, 1,000 HCC-1954 cells/well) were seeded into a tissue culture-treated 96-well plate and cultured in a cell incubator for 24 hours. […] Cell-titer Glo™ reagent (50 μL of a 5-fold diluted solution, Promega) was added to each well, and luminescence signals were measured using an Envision™ plate reader (PerkinElmer, USA). Titration curve fitting and IC50 values were generated using Prism 7.0 s/w (GraphPad, San Diego, USA).

CDK12/CyclinK = CDK12/CyclinK (Homo sapiens (Human), UniProt Q9NYV4); test: CDK12/cyclinK enzyme activity; format: biochemical; conditions: in vitro
Sequence of CDK12/CyclinK (Q9NYV4 whole entry): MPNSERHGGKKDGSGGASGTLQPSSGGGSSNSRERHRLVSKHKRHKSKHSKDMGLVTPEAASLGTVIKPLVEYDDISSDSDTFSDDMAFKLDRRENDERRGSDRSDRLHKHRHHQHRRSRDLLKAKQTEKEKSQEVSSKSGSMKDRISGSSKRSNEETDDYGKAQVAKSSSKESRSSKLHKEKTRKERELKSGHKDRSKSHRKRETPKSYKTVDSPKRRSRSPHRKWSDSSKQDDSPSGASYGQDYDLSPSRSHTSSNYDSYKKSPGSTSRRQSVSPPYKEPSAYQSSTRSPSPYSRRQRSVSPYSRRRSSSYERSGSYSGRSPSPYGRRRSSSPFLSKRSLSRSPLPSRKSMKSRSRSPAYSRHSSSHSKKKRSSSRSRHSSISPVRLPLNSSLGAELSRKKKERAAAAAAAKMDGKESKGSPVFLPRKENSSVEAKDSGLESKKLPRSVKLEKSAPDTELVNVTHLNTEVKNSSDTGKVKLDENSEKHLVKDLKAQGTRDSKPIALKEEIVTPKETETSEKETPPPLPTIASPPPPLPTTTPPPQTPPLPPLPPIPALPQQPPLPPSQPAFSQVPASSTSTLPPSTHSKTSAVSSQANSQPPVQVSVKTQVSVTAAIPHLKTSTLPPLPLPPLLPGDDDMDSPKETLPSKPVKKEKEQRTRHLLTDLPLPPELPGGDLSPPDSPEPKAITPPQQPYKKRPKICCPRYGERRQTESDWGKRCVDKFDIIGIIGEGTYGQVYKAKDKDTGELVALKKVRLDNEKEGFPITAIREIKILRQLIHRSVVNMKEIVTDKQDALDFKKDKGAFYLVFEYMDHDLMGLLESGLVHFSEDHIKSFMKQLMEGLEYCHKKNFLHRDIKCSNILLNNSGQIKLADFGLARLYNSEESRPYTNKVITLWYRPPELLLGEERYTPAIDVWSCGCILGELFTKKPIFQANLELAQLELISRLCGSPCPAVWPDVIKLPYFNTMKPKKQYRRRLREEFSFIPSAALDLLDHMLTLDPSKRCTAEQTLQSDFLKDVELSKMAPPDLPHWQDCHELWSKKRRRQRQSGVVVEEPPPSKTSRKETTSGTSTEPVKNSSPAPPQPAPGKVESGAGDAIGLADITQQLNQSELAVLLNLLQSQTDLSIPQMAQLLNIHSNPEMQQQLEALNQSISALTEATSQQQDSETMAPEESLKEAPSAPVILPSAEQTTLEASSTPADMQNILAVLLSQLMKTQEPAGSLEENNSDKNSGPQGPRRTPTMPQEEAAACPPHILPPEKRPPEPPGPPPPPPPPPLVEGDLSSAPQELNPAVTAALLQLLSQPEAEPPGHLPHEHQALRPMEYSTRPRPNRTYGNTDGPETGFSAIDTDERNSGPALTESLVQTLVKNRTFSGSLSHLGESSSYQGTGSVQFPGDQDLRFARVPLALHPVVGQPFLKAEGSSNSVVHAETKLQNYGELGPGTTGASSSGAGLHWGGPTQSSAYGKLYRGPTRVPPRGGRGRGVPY
Sequence of CDK12/CyclinK (O75909 whole entry partner): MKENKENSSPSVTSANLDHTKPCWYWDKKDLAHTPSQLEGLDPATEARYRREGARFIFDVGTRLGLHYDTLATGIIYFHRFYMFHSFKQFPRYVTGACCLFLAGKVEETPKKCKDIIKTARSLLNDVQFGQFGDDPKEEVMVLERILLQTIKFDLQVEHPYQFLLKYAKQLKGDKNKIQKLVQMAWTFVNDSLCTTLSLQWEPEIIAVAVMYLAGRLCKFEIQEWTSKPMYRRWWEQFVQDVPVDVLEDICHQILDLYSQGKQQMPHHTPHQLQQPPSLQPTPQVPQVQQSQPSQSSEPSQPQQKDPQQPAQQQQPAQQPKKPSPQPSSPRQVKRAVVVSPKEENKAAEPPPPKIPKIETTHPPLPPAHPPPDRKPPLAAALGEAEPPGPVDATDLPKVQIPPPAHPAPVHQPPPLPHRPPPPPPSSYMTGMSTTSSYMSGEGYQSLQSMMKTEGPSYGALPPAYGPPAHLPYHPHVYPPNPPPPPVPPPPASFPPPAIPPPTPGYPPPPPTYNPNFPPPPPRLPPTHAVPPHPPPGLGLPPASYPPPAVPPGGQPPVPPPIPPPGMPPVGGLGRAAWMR

SK-Br3 cells = test: Breast cancer growth inhibitory activity (Cell-titer Glo, 72 h); format: cell-based; conditions: Homo sapiens, SK-BR-3
Protocol: as §1

CYP2C9 = CYP2C9 (Homo sapiens (Human), UniProt P11712); test: CYP inhibitory activity; format: in vitro ADME; conditions: read-out: CYP % activity at 10 μM concentration 2C9
Sequence of CYP2C9 (P11712 whole entry): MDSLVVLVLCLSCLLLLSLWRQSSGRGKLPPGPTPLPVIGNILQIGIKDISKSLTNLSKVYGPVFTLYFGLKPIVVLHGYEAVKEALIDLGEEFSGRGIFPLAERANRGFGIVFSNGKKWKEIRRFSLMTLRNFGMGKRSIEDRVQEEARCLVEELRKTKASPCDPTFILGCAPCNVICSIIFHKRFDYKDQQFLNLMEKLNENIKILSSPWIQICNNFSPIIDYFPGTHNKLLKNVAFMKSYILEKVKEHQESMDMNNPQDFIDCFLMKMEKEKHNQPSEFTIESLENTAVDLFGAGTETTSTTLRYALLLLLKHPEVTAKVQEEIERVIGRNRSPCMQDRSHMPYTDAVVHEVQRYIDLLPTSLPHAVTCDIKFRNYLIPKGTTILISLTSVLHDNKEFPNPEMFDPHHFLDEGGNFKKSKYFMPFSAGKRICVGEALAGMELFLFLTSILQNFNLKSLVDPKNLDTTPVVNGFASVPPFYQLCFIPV
Protocol: (§2) 5 derivatives were evaluated for in vitro metabolic stability in liver microsomes from three different species (human, dog, mouse) and for inhibitory activity against 5 representative cytochrome P450 enzymes (CYPs)(Table 3). In terms of liver microsomal stability, the 2′-pyridyl group is more suitable than the α-methyl-4′-pyridyl group as the terminal aromatic group at position 6, and the aminopyrimidyl group is better than the aminopyridyl group as a substituent at position 2.

CYP2C19 = CYP2C19 (Homo sapiens (Human), UniProt P33261); test: CYP inhibitory activity; format: in vitro ADME; conditions: read-out: CYP % activity at 10 μM concentration 2C19
Sequence of CYP2C19 (P33261 whole entry): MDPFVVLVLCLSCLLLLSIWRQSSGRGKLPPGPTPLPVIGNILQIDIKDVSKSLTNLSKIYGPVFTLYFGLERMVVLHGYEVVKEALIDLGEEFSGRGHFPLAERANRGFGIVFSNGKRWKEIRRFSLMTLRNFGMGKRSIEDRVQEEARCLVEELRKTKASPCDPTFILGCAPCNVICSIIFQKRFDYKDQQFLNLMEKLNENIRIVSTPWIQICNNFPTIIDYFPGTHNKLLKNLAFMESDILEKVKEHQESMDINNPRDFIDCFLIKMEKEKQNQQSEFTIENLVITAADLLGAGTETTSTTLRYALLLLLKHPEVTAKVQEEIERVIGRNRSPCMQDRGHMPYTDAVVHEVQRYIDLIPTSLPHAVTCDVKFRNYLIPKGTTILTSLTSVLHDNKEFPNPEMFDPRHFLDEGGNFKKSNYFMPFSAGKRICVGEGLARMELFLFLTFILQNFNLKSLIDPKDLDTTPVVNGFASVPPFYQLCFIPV
Protocol: as §2

CYP3A4 = CYP3A4 (Homo sapiens (Human), UniProt P08684); test: CYP inhibitory activity; format: in vitro ADME; conditions: read-out: CYP % activity at 10 μM concentration 3A4
Sequence of CYP3A4 (P08684 whole entry): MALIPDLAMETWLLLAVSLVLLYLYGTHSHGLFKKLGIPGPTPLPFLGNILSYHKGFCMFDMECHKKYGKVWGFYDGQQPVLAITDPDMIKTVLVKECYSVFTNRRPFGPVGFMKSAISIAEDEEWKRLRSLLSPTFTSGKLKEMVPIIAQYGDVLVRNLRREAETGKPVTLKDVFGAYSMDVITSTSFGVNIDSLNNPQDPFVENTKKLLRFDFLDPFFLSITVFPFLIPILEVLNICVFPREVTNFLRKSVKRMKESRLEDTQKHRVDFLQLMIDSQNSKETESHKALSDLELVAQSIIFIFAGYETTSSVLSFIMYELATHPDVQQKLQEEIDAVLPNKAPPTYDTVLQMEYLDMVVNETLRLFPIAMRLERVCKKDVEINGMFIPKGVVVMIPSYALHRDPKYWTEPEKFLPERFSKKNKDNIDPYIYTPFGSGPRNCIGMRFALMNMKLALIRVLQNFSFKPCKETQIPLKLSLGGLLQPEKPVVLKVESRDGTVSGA
Protocol: as §2

CYP2D6 = CYP2D6 (Homo sapiens (Human), UniProt P10635); test: CYP inhibitory activity; format: in vitro ADME; conditions: read-out: CYP % activity at 10 μM concentration 2D6
Sequence of CYP2D6 (P10635 whole entry): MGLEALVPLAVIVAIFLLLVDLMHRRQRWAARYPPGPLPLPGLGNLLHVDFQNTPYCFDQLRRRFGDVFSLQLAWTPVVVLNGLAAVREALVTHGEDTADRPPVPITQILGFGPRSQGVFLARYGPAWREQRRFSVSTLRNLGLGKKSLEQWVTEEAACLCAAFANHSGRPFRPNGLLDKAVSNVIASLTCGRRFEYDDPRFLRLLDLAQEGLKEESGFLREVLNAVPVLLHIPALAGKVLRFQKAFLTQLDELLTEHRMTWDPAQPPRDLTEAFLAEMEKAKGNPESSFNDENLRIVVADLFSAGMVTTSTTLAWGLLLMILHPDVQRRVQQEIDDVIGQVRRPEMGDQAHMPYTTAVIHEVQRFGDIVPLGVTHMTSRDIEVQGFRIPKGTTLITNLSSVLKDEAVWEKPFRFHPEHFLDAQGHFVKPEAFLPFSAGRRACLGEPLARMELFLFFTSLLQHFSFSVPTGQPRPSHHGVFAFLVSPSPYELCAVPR
Protocol: as §2

CYP1A2 = CYP1A2 (Homo sapiens (Human), UniProt P05177); test: in vitro; format: in vitro ADME
Sequence of CYP1A2 (P05177 whole entry): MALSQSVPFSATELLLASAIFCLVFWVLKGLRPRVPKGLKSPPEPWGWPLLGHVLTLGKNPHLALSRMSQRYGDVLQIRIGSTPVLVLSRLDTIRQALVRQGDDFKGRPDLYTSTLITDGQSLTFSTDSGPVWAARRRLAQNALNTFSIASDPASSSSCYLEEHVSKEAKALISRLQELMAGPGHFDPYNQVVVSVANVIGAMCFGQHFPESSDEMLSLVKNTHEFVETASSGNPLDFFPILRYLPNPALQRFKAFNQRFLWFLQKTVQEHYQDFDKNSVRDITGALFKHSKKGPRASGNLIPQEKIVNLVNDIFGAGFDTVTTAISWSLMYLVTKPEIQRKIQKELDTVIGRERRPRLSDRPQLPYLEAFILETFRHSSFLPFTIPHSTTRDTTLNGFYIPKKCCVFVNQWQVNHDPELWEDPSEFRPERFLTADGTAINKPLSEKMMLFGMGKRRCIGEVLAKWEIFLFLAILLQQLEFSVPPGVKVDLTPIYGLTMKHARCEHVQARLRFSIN
Protocol: as §2

[2] = Liver microsomal metabolic stability; format: in vitro ADME; conditions: for Liver microsomal metabolic stability (% remaining amount) Dog: dog liver microsomes; for Liver microsomal metabolic stability (% remaining amount) Human: human liver microsomes; for Liver microsomal metabolic stability (% remaining amount) Mouse: mouse liver microsomes
Protocol: as §2

IRS1 and WNT1 = test: Western blot, CDK12 downstream gene expression; format: cell-based; conditions: SK-Br3 and HCC1954 cell lines, 40 and 200 nM, 24 hours
[3] = 72 hours, read-out: HCC1954 (GI50/μM)
[4] = 72 hours, read-out: SK-Br3 (GI50/μM)
[5] = SK-Br3 and HCC1954 cell lines, 40 and 200 nM
[6] = SK-Br3 and HCC1954 cell lines, 40 and 200 nM, listed as Compound 54

SMILES: CC(C)n1cnc2c(NCc3ccc(-c4ccccn4)cn3)nc(-c3cccnc3)nc21 [Example 1, N-([2,3′-bipyridin]-6′-ylmethyl)-9-isopropyl-2-(pyridin-3-yl)-9H-purin-6-amine]
cyclinK degradation (cyclinK; SK-Br3 cell line, 0.2 and 1 μM): induced the degradation of cyclinK
Pol II CTD (Ser2) phosphorylation ([1]; SK-Br3 cell line, 0.2 and 1 μM): inhibited Pol II CTD (Ser2) phosphorylation in a dose-dependent manner
GI50 (HCC1954 cells; [3]): 0.105 µM
IC50 (CDK12/CyclinK): 0.433 µM

SMILES: CC(C)n1cnc2c(NCc3ccc(-c4ccncc4)cn3)nc(-c3cccnc3)nc21 [Example 4, N-([3,4′-bipyridin]-6-ylmethyl)-9-isopropyl-2-(pyridin-3-yl)-9H-purin-6-amine]
cyclinK degradation (cyclinK; SK-Br3 cell line, 0.2 and 1 μM): induced the degradation of cyclinK
Pol II CTD (Ser2) phosphorylation ([1]; SK-Br3 cell line, 0.2 and 1 μM): inhibited Pol II CTD (Ser2) phosphorylation in a dose-dependent manner
GI50 (SK-Br3 cells; [4]): 0.74 µM
GI50 (HCC1954 cells; [3]): 0.888 µM
IC50 (CDK12/CyclinK): 0.627 µM

SMILES: CC(C)n1cnc2c(NCc3ccc(-c4cccnc4)nc3)nc(-c3ccccc3NCCCO)nc21 [Example 32, 3-((2-(6-(([2,3′-bipyridin]-5-ylmethyl)amino)-9-isopropyl-9H-purin-2-yl)phenyl)amino)propan-1-ol]
GI50 (SK-Br3 cells; [4]): 11.3 µM
GI50 (HCC1954 cells; [3]): 6.09 µM
IC50 (CDK12/CyclinK): 3.01 µM

SMILES: Cc1cc(N)n(-c2nc(NCc3ccc(-c4cccnc4)nc3)c3ncn(C(C)C)c3n2)n1 [Example 40, N-([2,3′-bipyridin]-5-ylmethyl)-2-(5-amino-3-methyl-1H-pyrazol-1-yl)-9-isopropyl-9H-purin-6-amine]
GI50 (SK-Br3 cells; [4]): 5.18 µM
GI50 (HCC1954 cells; [3]): 3.45 µM
IC50 (CDK12/CyclinK): 2.35 µM

SMILES: CC(C)n1cnc2c(NCc3ccc(-c4cccnc4)nc3)nc(-n3cc(CO)nn3)nc21 [Example 41, (1-(6-(([2,3′-bipyridin]-5-ylmethyl)amino)-9-isopropyl-9H-purin-2-yl)-1H-1,2,3-triazol-4-yl)methanol]
GI50 (SK-Br3 cells; [4]): 13.3 µM
GI50 (HCC1954 cells; [3]): 10 µM
IC50 (CDK12/CyclinK): 2.05 µM

SMILES: c1cncc(-c2ccc(CNc3nc(-c4cccnc4)nc4c3ncn4C3CCCC3)cn2)c1 [Example 47, N-([2,3′-bipyridin]-5-ylmethyl)-9-cyclopentyl-2-(pyridin-3-yl)-9H-purin-6-amine]
GI50 (SK-Br3 cells; [4]): 2.6 µM
GI50 (HCC1954 cells; [3]): 2.14 µM
IC50 (CDK12/CyclinK): 0.293 µM

SMILES: CCn1cnc2c(NCc3ccc(-c4ccnc(C)c4)nc3)nc(-c3ccc(N)nc3)nc21 [Example 49, 2-(6-aminopyridin-3-yl)-9-ethyl-N-((2′-methyl-[2,4′-bipyridin]-5-yl)methyl)-9H-purin-6-amine]
activity at 10 µM (CYP2C9): 73%
activity at 10 µM (CYP2C19): 76.8%
activity at 10 µM (CYP3A4): 38.9%
activity at 10 µM (CYP2D6): 89.6%
activity at 10 µM (CYP1A2): 59.3%
Liver microsomal metabolic stability (% remaining amount) Dog [2]: 45.1%
Liver microsomal metabolic stability (% remaining amount) Human [2]: 32.2%
Liver microsomal metabolic stability (% remaining amount) Mouse [2]: 35.3%
GI50 (SK-Br3 cells; [4]): 0.133 µM
IC50 (CDK12/CyclinK): 0.012 µM

SMILES: CCn1cnc2c(NCc3ccc(-c4ccnc(C)c4)nc3)nc(-c3cnc(N)nc3)nc21 [Example 50, 2-(2-aminopyrimidin-5-yl)-9-ethyl-N-((2′-methyl-[2,4′-bipyridin]-5-yl)methyl)-9H-purin-6-amine]
activity at 10 µM (CYP2C9): 82.9%
activity at 10 µM (CYP2C19): 75.4%
activity at 10 µM (CYP3A4): 72.4%
activity at 10 µM (CYP2D6): 85.7%
activity at 10 µM (CYP1A2): 74.9%
Liver microsomal metabolic stability (% remaining amount) Dog [2]: 53.6%
Liver microsomal metabolic stability (% remaining amount) Human [2]: 40.6%
Liver microsomal metabolic stability (% remaining amount) Mouse [2]: 45.0%
IC50 (CDK12/CyclinK): 0.019 µM

SMILES: CCn1cnc2c(NCc3ccc(-c4ccnc(C)c4)nc3)nc(-c3cncnc3)nc21 [Example 51, 9-ethyl-N-((2′-methyl-[2,4′-bipyridin]-5-yl)methyl)-2-(pyrimidin-5-yl)-9H-purin-6-amine]
activity at 10 µM (CYP2C9): 67.5%
activity at 10 µM (CYP2C19): 73.9%
activity at 10 µM (CYP3A4): 31.8%
activity at 10 µM (CYP2D6): 88.8%
activity at 10 µM (CYP1A2): 68.6%
Liver microsomal metabolic stability (% remaining amount) Dog [2]: 79.5%
Liver microsomal metabolic stability (% remaining amount) Human [2]: 27.3%
Liver microsomal metabolic stability (% remaining amount) Mouse [2]: 34.0%
GI50 (SK-Br3 cells; [4]): 0.192 µM
GI50 (HCC1954 cells; [3]): 0.156 µM
IC50 (CDK12/CyclinK): 0.056 µM

SMILES: CCn1cnc2c(NCc3ccc(-c4ccccn4)nc3)nc(-c3cnc(N)nc3)nc21 [Example 54, N-([2,2′-bipyridin]-5-ylmethyl)-2-(2-aminopyrimidin-5-yl)-9-ethyl-9H-purin-6-amine]
activity at 10 µM (CYP2C9): 81.6%
activity at 10 µM (CYP2C19): 72.6%
activity at 10 µM (CYP3A4): 92.8%
activity at 10 µM (CYP2D6): 92.1%
activity at 10 µM (CYP1A2): 87.6%
cyclinK degradation (cyclinK; [5]): induced cyclinK degradation
cyclinK degradation (cyclinK; [6]): cyclinK levels were greatly suppressed in a dose-dependent manner
Liver microsomal metabolic stability (% remaining amount) Dog [2]: 67.6%
Liver microsomal metabolic stability (% remaining amount) Human [2]: 100%
Liver microsomal metabolic stability (% remaining amount) Mouse [2]: 85.0%
Pol II CTD (Ser2) phosphorylation [1, 5]: inhibited Pol II CTD (Ser2) phosphorylation
Pol II CTD (Ser2) phosphorylation [1, 6]: strong dose-dependent suppression of Pol II phosphorylation
IC50 (CDK12/CyclinK): 0.077 µM
expression of IRS1 and WNT1 (IRS1 and WNT1): inhibited the expression of IRS1 and WNT1
expression of IRS1 and WNT1 (IRS1 and WNT1; listed as Compound 54): strongly suppressed

SMILES: CN(C)C/C=C/C(=O)Nc1ccc(C(=O)N2CCC[C@@H](Nc3ncc(Cl)c(-c4c[nH]c5ccccc45)n3)C2)cc1 [THZ531, reference compound]
GI50 (SK-Br3 cells; read-out: SK-Br3 GI50): 0.03 µM
GI50 (HCC1954 cells; [3]): 0.214 µM
GI50 (HCC1954 cells; read-out: HCC1954 GI50): 0.214 µM
IC50 (CDK12/CyclinK): 0.05 µM

Continued, in another order:

GI50 (SK-Br3 cells; [4]): 0.866 µM
GI50 (HCC1954 cells; [3]): 0.659 µM
IC50 (CDK12/CyclinK): 0.582 µM
SMILES: CC(C)n1cnc2c(NCc3ccc(-c4cccnc4)cn3)nc(-c3cccnc3)nc21 [Example 2, N-([3,3′-bipyridin]-6-ylmethyl)-9-isopropyl-2-(pyridin-3-yl)-9H-purin-6-amine]
cyclinK degradation (cyclinK; SK-Br3 cell line, 0.2 and 1 μM): induced the degradation of cyclinK
Pol II CTD (Ser2) phosphorylation ([1]; SK-Br3 cell line, 0.2 and 1 μM): inhibited Pol II CTD (Ser2) phosphorylation in a dose-dependent manner

IC50 (CDK12/CyclinK): 0.481 µM
SMILES: Cc1cc(-c2ccc(CNc3nc(-c4cccnc4)nc4c3ncn4C(C)C)nc2)ccn1 [Example 5, 9-isopropyl-N-((2′-methyl-[3,4′-bipyridin]-6-yl)methyl)-2-(pyridin-3-yl)-9H-purin-6-amine]
cyclinK degradation (cyclinK; SK-Br3 cell line, 0.2 and 1 μM): induced the degradation of cyclinK
Pol II CTD (Ser2) phosphorylation ([1]; SK-Br3 cell line, 0.2 and 1 μM): inhibited Pol II CTD (Ser2) phosphorylation in a dose-dependent manner

GI50 (SK-Br3 cells; [4]): 2.31 µM
GI50 (HCC1954 cells; [3]): 1.56 µM
IC50 (CDK12/CyclinK): 0.799 µM
SMILES: CC(C)n1cnc2c(NCc3ccc(-c4cccnc4)nc3)nc(-c3ccccc3NCCO)nc21 [Example 31, 2-((2-(6-(([2,3′-bipyridin]-5-ylmethyl)amino)-9-isopropyl-9H-purin-2-yl)phenyl)amino)ethan-1-ol]

GI50 (SK-Br3 cells; [4]): 1.09 µM
GI50 (HCC1954 cells; [3]): 0.906 µM
IC50 (CDK12/CyclinK): 0.499 µM
SMILES: CC(C)n1cnc2c(NCc3ccc(-c4cccnc4)nc3)nc(-c3ccc(NCCCO)cc3)nc21 [Example 34, 3-((4-(6-(([2,3′-bipyridin]-5-ylmethyl)amino)-9-isopropyl-9H-purin-2-yl)phenyl)amino)propan-1-ol]

GI50 (SK-Br3 cells; [4]): 0.261 µM
GI50 (HCC1954 cells; [3]): 0.173 µM
IC50 (CDK12/CyclinK): 0.053 µM
SMILES: CC(C)n1cnc2c(NCc3ccc(-c4cccnc4)nc3)nc(-c3ccc(NCCO)nc3)nc21 [Example 35, 2-((5-(6-(([2,3′-bipyridin]-5-ylmethyl)amino)-9-isopropyl-9H-purin-2-yl)pyridin-2-yl)amino)ethan-1-ol]

GI50 (SK-Br3 cells; [4]): 8.29 µM
GI50 (HCC1954 cells; [3]): 6.5 µM
IC50 (CDK12/CyclinK): 0.539 µM
SMILES: CC(C)n1cnc2c(NCc3ccc(-c4cccnc4)nc3)nc(-n3cc(CCO)nn3)nc21 [Example 42, 2-(1-(6-(([2,3′-bipyridin]-5-ylmethyl)amino)-9-isopropyl-9H-purin-2-yl)-1H-1,2,3-triazol-4-yl)ethan-1-ol]
